Assay results reported in PubChem BioAssay AID330 (DTP/NCI, 2004).
Where “and” joins values, the source holds several entries; their conditions need not be identical. Equal values may be shown once. Toxic doses and inconclusive results are not listed.

Tested on: P388 leukemia ip, CD2F1 mice, survival T/C
Experiment: NCI In Vivo Anticancer Drug Screen. Data for tumor model P388 Leukemia (intraperitoneal) in CD2F1 (CDF1) mice
Details: endpoint: median survival time, higher = longer survival
In short: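 Mice carrying the transplanted tumor received test compound or vehicle. Survival was recorded in each group, and the value is the treated-group measurement divided by that of the vehicle-treated control group.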

[1] = dose: 100.0 mg/kg/injection, schedule: Q04DX003 (ip), vehicle: saline
[2] = dose: 200.0 mg/kg/injection, schedule: Q04DX003 (ip), vehicle: saline
[3] = dose: 60.0 mg/kg/injection, schedule: Q01DX005 (ip), vehicle: saline with Tween-80

CCO/C([O-])=C(\C=N\S(=O)(=O)c1ccc(C)cc1)[n+]1ccc(C)cc1
T/C (dose: 100.0 mg/kg/injection, schedule: Q04DX003 (ip), vehicle: Klucel (hydroxypropylcellulose) (HPC)): 103 % of control
T/C (dose: 200.0 mg/kg/injection, schedule: Q04DX003 (ip), vehicle: Klucel (hydroxypropylcellulose) (HPC)): 100 % of control
T/C (dose: 400.0 mg/kg/injection, schedule: Q04DX003 (ip), vehicle: Klucel (hydroxypropylcellulose) (HPC)): 101 % of control

CCC[CH2][Sn](=[S])[CH2]CCC
T/C (dose: 1.56 mg/kg/injection, schedule: Q01DX009 (ip), vehicle: other): 116 % of control

CC1(C)OOC(C)(O)C1Br (stereo not given)
T/C (dose: 50.0 mg/kg/injection, schedule: Q04DX003 (ip), vehicle: saline): 95 % of control
T/C [1]: 103 % of control
T/C [2]: 95 % of control

CCCCCCCCCCCCCCCC[N+](C)(C)C(C)c1ccccc1 (stereo not given)
T/C (dose: 0.78 mg/kg/injection, schedule: Q04DX003 (ip), vehicle: saline with Tween-80): 104 % of control and 106 % of control
T/C (dose: 1.56 mg/kg/injection, schedule: Q04DX003 (ip), vehicle: saline with Tween-80): 116 % of control and 118 % of control
T/C (dose: 6.25 mg/kg/injection, schedule: Q04DX003 (ip), vehicle: saline with Tween-80): 117 % of control

O=c1n(-c2ccccc2)c(=O)n2n1CC(c1ccccc1)=N2
T/C (dose: 100.0 mg/kg/injection, schedule: Q01DX009 (ip), vehicle: other): 99 % of control
T/C (dose: 200.0 mg/kg/injection, schedule: Q01DX009 (ip), vehicle: other): 91 % of control
T/C (dose: 400.0 mg/kg/injection, schedule: Q01DX009 (ip), vehicle: other): 89 % of control

CN(C)CCCNc1ccc(O)c2sc3ccccc3c(=O)c12
T/C (dose: 3.13 mg/kg/injection, schedule: Q01DX009 (ip), vehicle: saline): 101 % of control
T/C (dose: 6.25 mg/kg/injection, schedule: Q01DX009 (ip), vehicle: saline): 103 % of control
T/C (dose: 12.5 mg/kg/injection, schedule: Q01DX009 (ip), vehicle: saline): 103 % of control
T/C (dose: 25.0 mg/kg/injection, schedule: Q01DX009 (ip), vehicle: saline): 100 % of control

COc1ccc([N+](=O)[O-])c(/C=C/C(=O)c2ccccn2)c1
T/C (dose: 12.5 mg/kg/injection, schedule: Q01DX009 (ip), vehicle: distilled water + Tween-80): 98 % of control
T/C (dose: 25.0 mg/kg/injection, schedule: Q01DX009 (ip), vehicle: distilled water + Tween-80): 100 % of control
T/C (dose: 50.0 mg/kg/injection, schedule: Q01DX009 (ip), vehicle: distilled water + Tween-80): 97 % of control
T/C (dose: 100.0 mg/kg/injection, schedule: Q01DX009 (ip), vehicle: distilled water + Tween-80): 98 % of control
T/C (dose: 200.0 mg/kg/injection, schedule: Q01DX009 (ip), vehicle: distilled water + Tween-80): 104 % of control

CCC1(CC)C(=O)NC(=O)[N]([Sn]([CH3])([CH3])[N]2C(=O)NC(=O)C(CC)(CC)C2=O)C1=O
T/C (dose: 50.0 mg/kg/injection, schedule: Q01DX005 (ip), vehicle: Klucel (hydroxypropylcellulose) (HPC)): 112 % of control
T/C (dose: 100.0 mg/kg/injection, schedule: Q01DX005 (ip), vehicle: Klucel (hydroxypropylcellulose) (HPC)): 111 % of control

Fc1ccc2c(c1)C(Br)c1ccccc1-2 (stereo not given)
T/C (dose: 6.25 mg/kg/injection, schedule: Q01DX009 (ip), vehicle: saline with Tween-80): 104 % of control
T/C (dose: 12.5 mg/kg/injection, schedule: Q01DX009 (ip), vehicle: saline with Tween-80): 100 % of control
T/C (dose: 25.0 mg/kg/injection, schedule: Q01DX009 (ip), vehicle: saline with Tween-80): 109 % of control

C(=C/c1cc2ccc(C3=NCCN3)cc2o1)/c1cc2cc(C3=NCCN3)ccc2[nH]1
T/C (dose: 200.0 mg/kg/injection, schedule: Q04DX003 (ip), vehicle: suspension in saline): 113 % of control

CC(=O)OC1C=CC(SC23CC4CC(CC(C4)C2)C3)N(C(C)=O)C1SC12CC3CC(CC(C3)C1)C2 (stereo not given)
T/C (dose: 50.0 mg/kg/injection, schedule: Q01DX009 (ip), vehicle: Klucel (hydroxypropylcellulose) (HPC)): 103 % of control
T/C (dose: 100.0 mg/kg/injection, schedule: Q01DX009 (ip), vehicle: Klucel (hydroxypropylcellulose) (HPC)): 105 % of control
T/C (dose: 200.0 mg/kg/injection, schedule: Q01DX009 (ip), vehicle: Klucel (hydroxypropylcellulose) (HPC)): 99 % of control

COc1cc(C(C)(C)C)c2oc3c(c2c1)C(=O)C(C(C)(C)C)=CC3(OC)OC
T/C (dose: 50.0 mg/kg/injection, schedule: Q01DX009 (ip), vehicle: saline): 104 % of control
T/C (dose: 100.0 mg/kg/injection, schedule: Q01DX009 (ip), vehicle: saline): 100 % of control
T/C (dose: 200.0 mg/kg/injection, schedule: Q01DX009 (ip), vehicle: saline): 97 % of control

O=C(O)C(Cl)Cc1cnc[nH]1 (stereo not given)
T/C [1]: 103 % of control
T/C [2]: 91 % of control
T/C (dose: 400.0 mg/kg/injection, schedule: Q04DX003 (ip), vehicle: saline): 91 % of control

O=C1C2=C(Nc3cc([N+](=O)[O-])ccc3N2)OC1c1ccccc1Cl (stereo not given)
T/C (dose: 60.0 mg/kg/injection, schedule: Q01DX005 (ip), vehicle: Klucel (hydroxypropylcellulose) (HPC)): 102 % of control
T/C (dose: 120.0 mg/kg/injection, schedule: Q01DX005 (ip), vehicle: Klucel (hydroxypropylcellulose) (HPC)): 98 % of control
T/C (dose: 240.0 mg/kg/injection, schedule: Q01DX005 (ip), vehicle: Klucel (hydroxypropylcellulose) (HPC)): 98 % of control

CS(=O)(=O)c1cc([N+](=O)[O-])cc([N+](=O)[O-])c1Cl
T/C (dose: 2.5 mg/kg/injection, schedule: Q01DX009 (ip), vehicle: saline with Tween-80): 109 % of control
T/C (dose: 5.0 mg/kg/injection, schedule: Q01DX009 (ip), vehicle: saline with Tween-80): 90 % of control

C=C1C(=O)C(CCC)=C(CC)C1O (stereo not given)
T/C [3]: 105 % of control

CCOC(=O)C(=O)N1c2c(nc(N)[nH]c2=O)NCC1CNc1ccc(C(=O)NC(CCC(=O)O)C(=O)O)cc1 (stereo not given) (tested in a mixture with another compound)
T/C (dose: 50.0 mg/kg/injection, schedule: Q01DX001 (ip), vehicle: saline): 111 % of control
T/C (dose: 100.0 mg/kg/injection, schedule: Q01DX001 (ip), vehicle: saline): 101 % of control
T/C (dose: 200.0 mg/kg/injection, schedule: Q01DX001 (ip), vehicle: saline): 101 % of control

O=[n+]1c2c(n([O-])c3ccccc31)C(Br)CCCC2Br (stereo not given)
T/C [3]: 100 % of control
T/C (dose: 120.0 mg/kg/injection, schedule: Q01DX005 (ip), vehicle: saline with Tween-80): 95 % of control
T/C (dose: 240.0 mg/kg/injection, schedule: Q01DX005 (ip), vehicle: saline with Tween-80): 89 % of control

COC1=C(C)C(=O)C2=C(C1=O)C1C3CC4=C(C(=O)C(OC)=C(C)C4=O)C(CNC(=O)C(C)=O)N3C(C#N)C(C2)N1C (stereo not given)
T/C (dose: 0.06 mg/kg/injection, schedule: Q01DX009 (ip), vehicle: Klucel (hydroxypropylcellulose) (HPC)): 122 % of control
T/C (dose: 0.31 mg/kg/injection, schedule: Q01DX009 (sc), vehicle: Klucel (hydroxypropylcellulose) (HPC)): 107 % of control
T/C (dose: 0.62 mg/kg/injection, schedule: Q01DX009 (ip), vehicle: Klucel (hydroxypropylcellulose) (HPC)): 160 % of control
T/C (dose: 0.62 mg/kg/injection, schedule: Q01DX009 (sc), vehicle: Klucel (hydroxypropylcellulose) (HPC)): 115 % of control
T/C (dose: 1.0 mg/kg/injection, schedule: Q01DX009 (ip), vehicle: saline): 156 % of control
T/C (dose: 1.25 mg/kg/injection, schedule: Q01DX009 (ip), vehicle: Klucel (hydroxypropylcellulose) (HPC)): 107 % of control
T/C (dose: 1.25 mg/kg/injection, schedule: Q01DX009 (sc), vehicle: Klucel (hydroxypropylcellulose) (HPC)): 118 % of control
T/C (dose: 2.0 mg/kg/injection, schedule: Q01DX009 (ip), vehicle: saline): 87 % of control

Cc1nn(C)c(NC(=O)c2ccccc2O)c1SC#N
T/C (dose: 6.25 mg/kg/injection, schedule: Q01DX005 (ip), vehicle: saline with Tween-80): 93 % of control
T/C (dose: 12.5 mg/kg/injection, schedule: Q01DX005 (ip), vehicle: saline with Tween-80): 93 % of control
T/C (dose: 25.0 mg/kg/injection, schedule: Q01DX005 (ip), vehicle: saline with Tween-80): 93 % of control
